This is an account of results in patent US8106055B2, “Substituted amide compounds” (Gruenenthal GmbH, priority 2007, dated 2012).

In this test the target is T1, human μ opiate receptor (Homo sapiens, UniProt P35372).
T1 construct: purchased PerkinElmer Life Sciences, Zaventem, Belgium RB-HOM; host or cells: CHO-K1 cells (membrane preparation)
The test can be described thus: Affinity for the human μ opiate receptor ([3H]-naloxone displacement, CHO-K1 receptor membrane preparation, SPA). The class given is binding. As to conditions: for μ (binding on the μ opioid receptor, % inhibition): test concentration of 1 μM. In a few lines: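 SPA, CHO-K1 hμ membranes; 1 nmol/l [3H]-naloxone; Tris-HCl 50 mmol/l + 0.06% BSA; 90 min RT; NSB with 100 μmol/l naloxone; β-counting. Readout: % inhibition of specific binding at 1 μM test compound.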

T1 sequence (P35372 whole entry): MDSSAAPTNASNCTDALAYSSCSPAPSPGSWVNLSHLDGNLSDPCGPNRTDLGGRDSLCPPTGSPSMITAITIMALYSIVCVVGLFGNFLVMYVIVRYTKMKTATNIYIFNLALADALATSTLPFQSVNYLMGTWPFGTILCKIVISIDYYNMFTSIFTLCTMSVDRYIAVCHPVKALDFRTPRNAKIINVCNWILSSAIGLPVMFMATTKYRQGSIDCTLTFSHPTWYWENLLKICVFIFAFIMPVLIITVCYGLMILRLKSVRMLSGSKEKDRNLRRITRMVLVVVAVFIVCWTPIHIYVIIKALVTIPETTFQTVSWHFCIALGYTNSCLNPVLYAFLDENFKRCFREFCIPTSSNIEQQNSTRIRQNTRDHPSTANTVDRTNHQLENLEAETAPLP

For the compound `O=C(COCCN(C1CC1)S(=O)(=O)c1c(Cl)cc(Cl)cc1Cl)NC1CCC(C(c2ccccc2)N2CCCC2)CC1` (centres unmarked) [Example 603, 2-{2-[cyclopropyl-(2,4,6-trichlorobenzenesulfonyl)-amino]-ethoxy}-N-[4-(phenylpyrrolidin-1-ylmethyl)-cyclohexyl]-acetamide], the inhibition at 1 µM (1.5 h, Table 2, test concentration 1 μM, read-out: μ receptor) is 45%.

For the setting “Table 2, test concentration 1 μM”, `CN(C)C(c1ccccc1)C1CCC(NC(=O)COCC2CCCN2S(=O)(=O)c2c(Cl)cc(Cl)cc2Cl)CC1` (centres unmarked) [Example 612, N-[4-(Dimethylaminophenylmethyl)-cyclohexyl]-2-[1-(2,4,6-trichlorobenzenesulfonyl)-pyrrolidin-2-ylmethoxy]-acetamide] had a μ receptor of 88 % inhibition.

As for `COc1cc(C)c(S(=O)(=O)N2CCC(OCC(=O)NCC3CCC(C(c4cccc(F)c4)N(C)C)CC3)C2)c(C)c1` (centres unmarked) [Example 265], the “μ (binding on the μ opioid receptor, % inhibition)” value came out at 79%.

Regarding `CN(C)C(c1ccc(F)cc1)C1CCC(CNC(=O)COCCN(C)S(=O)(=O)c2ccc(Cl)cc2Cl)CC1` (centres unmarked) [Example 249], the “μ (binding on the μ opioid receptor, % inhibition)” value was determined as 70%.

For the compound `COc1cc(C)c(S(=O)(=O)N2CCCC(OCC(=O)NCCC3CCC(C(c4cccc(F)c4)N(C)C)CC3)C2)c(C)c1C` (centres unmarked) [Example 221], the “μ (binding on the μ opioid receptor, % inhibition)” value was determined as 82%.

`COc1ccc(S(=O)(=O)N2CCC(OCC(=O)NCC3CCC(C(c4ccc(Cl)cc4)N(C)C)CC3)C2)cc1OC` (centres unmarked) [Example 260]: the “μ (binding on the μ opioid receptor, % inhibition)” value came out at 76%.

As to `COc1ccc(S(=O)(=O)N(C)CCOCC(=O)NC2CCC(C(c3cccc(F)c3)N(C)C)CC2)cc1` (centres unmarked) [Example 250], the “μ (binding on the μ opioid receptor, % inhibition)” value is 70%.

On to `COc1cc(C)c(S(=O)(=O)N(CCOCC(=O)NCCC2CCC(C(c3cccs3)N(C)C)CC2)Cc2ccccc2)c(C)c1C` (centres unmarked) [Example 254], for which the “μ (binding on the μ opioid receptor, % inhibition)” value is recorded as 83%.
